Measurements published in paper PMC8793051 (ACS Omega, 2022).

What was measured:
[1] = tested on: UACC-257; test: NCI-60 SRB growth assay; assay type: cell-based, human
[2] = tested on: HOP-62; test: NCI-60 SRB growth assay; assay type: cell-based, human
[3] = tested on: HL-60(TB); test: cells; settings: Homo sapiens
[4] = tested on: SNB-75; test: NCI-60 SRB growth assay; assay type: cell-based, human
[5] = tested on: DU-145; test: NCI-60 SRB growth assay; assay type: cell-based, human
[6] = tested on: SF-539; test: NCI-60 SRB growth assay; assay type: cell-based, human
[7] = tested on: NCI/ADR-RES; test: NCI-60 SRB growth assay; assay type: cell-based, human
[8] = tested on: MDA-MB-231/ATCC; test: NCI-60 SRB growth assay; assay type: cell-based, human
[9] = tested on: EKVX; test: NCI-60 SRB growth assay; assay type: cell-based, human
[10] = tested on: CCRF-CEM; test: NCI-60 SRB growth assay; assay type: cell-based, human
[11] = tested on: OVCAR-4; test: NCI-60 SRB growth assay; assay type: cell-based, human
[12] = tested on: SF-268; test: NCI-60 SRB growth assay; assay type: cell-based, human
[13] = tested on: T-47D; test: NCI-60 SRB growth assay; assay type: cell-based, human
[14] = tested on: SW-620; test: NCI-60 SRB growth assay; assay type: cell-based, human
[15] = tested on: HCC-2998; test: NCI-60 SRB growth assay; assay type: cell-based, human
[16] = tested on: HEK; test: MTT cytotoxicity assay; assay type: cell-based; settings: Homo sapiens, HEK293, 48 h
[17] = tested on: SK-MEL-2; test: NCI-60 SRB growth assay; assay type: cell-based, human; settings: SK-MEL-2
[18] = tested on: SK-MEL-5; test: NCI-60 SRB growth assay; assay type: cell-based, human
[19] = tested on: NCI-H226; test: NCI-60 SRB growth assay; assay type: cell-based, human
[20] = tested on: oligo-1: d(CGCGAATTCGCG)2; test: Fluorescence titration; assay type: binding; settings: 20 °C, pH 7.2
[21] = tested on: UO-31; test: NCI-60 SRB growth assay; assay type: cell-based, human
[22] = tested on: LOX IMVI; test: NCI-60 SRB growth assay; assay type: cell-based, human
[23] = molecular target: T1, Hu Topo I (Homo sapiens, UniProt P11387); test: Plasmid DNA relaxation assay
T1 sequence (P11387 1-765): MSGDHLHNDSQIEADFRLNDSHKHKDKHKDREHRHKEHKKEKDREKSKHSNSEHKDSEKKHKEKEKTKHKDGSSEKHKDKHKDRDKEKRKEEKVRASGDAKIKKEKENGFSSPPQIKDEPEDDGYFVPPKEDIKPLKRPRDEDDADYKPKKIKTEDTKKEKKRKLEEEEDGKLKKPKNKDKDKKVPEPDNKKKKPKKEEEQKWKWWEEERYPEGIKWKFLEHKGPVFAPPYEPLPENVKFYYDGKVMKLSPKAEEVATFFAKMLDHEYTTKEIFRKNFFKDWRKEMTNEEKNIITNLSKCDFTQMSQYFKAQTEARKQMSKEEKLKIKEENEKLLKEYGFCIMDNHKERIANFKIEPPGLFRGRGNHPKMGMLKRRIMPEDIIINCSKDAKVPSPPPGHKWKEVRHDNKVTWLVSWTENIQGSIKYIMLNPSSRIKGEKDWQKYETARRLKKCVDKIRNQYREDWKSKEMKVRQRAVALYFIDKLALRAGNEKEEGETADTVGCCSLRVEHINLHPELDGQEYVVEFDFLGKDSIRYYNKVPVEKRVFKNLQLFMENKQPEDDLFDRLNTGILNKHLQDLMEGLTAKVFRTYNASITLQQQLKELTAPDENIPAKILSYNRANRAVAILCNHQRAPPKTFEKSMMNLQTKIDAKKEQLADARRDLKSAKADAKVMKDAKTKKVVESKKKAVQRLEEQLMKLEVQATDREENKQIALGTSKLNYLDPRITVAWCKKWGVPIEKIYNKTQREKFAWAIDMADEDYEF

[24] = tested on: MCF7; test: NCI-60 SRB growth assay; assay type: cell-based, human
[25] = tested on: RPMI-8226; test: NCI-60 SRB growth assay; assay type: cell-based, human
[26] = tested on: MALME-3M; test: NCI-60 SRB growth assay; assay type: cell-based, human

CCCN1CCN(c2ccc3[nH]c(-c4ccc5[nH]c(-c6ccc(OCC)c(OCC)c6)nc5c4)nc3c2)CC1 [11a, 2-(2-(3,4-Diethoxyphenyl)-1H-benzo[d]imidazol-5-yl)-5-(4-propylpiperazin-1-yl)-1H-benzo[d]imidazole]
GI50 ([1]; Homo sapiens, UACC-257): 790 nM | CC50 ([1]; Homo sapiens, UACC-257, read-out: LC50): 9400 nM | TGI ([1]; UACC-257): 2800 nM | TGI ([2]; HOP-62): 5200 nM | GI50 ([2]; Homo sapiens, HOP-62): 1980 nM | CC50 ([2]; Homo sapiens, HOP-62, read-out: LC50): 23400 nM | GI50 ([3]; HL-60): 370 nM | CC50 ([3]; HL-60, read-out: LC50): > 100000 nM | GI50 ([4]; Homo sapiens, SNB-75): 710 nM | CC50 ([4]; Homo sapiens, SNB-75, read-out: LC50): 4300 nM | TGI ([4]; SNB-75): 1900 nM | TGI ([5]; DU-145): 2020 nM | GI50 ([5]; Homo sapiens, DU-145): 440 nM | CC50 ([5]; Homo sapiens, DU-145, read-out: LC50): 12400 nM | GI50 ([6]; Homo sapiens, SF-539): 790 nM | CC50 ([6]; Homo sapiens, SF-539, read-out: LC50): 4800 nM | TGI ([6]; SF-539): 2100 nM | TGI [7]: >100000 nM | GI50 ([7]; Homo sapiens): > 100000 nM | CC50 ([7]; Homo sapiens, read-out: LC50): > 100000 nM | GI50 ([8]; Homo sapiens, MDA-MB-231): 1380 nM | CC50 ([8]; Homo sapiens, MDA-MB-231, read-out: LC50): 6780 nM | TGI ([8]; MDA-MB-231): 3060 nM | TGI [9]: 13300 nM | GI50 ([9]; Homo sapiens): 1730 nM | CC50 ([9]; Homo sapiens, read-out: LC50): > 100000 nM | TGI [10]: 3600 nM | GI50 ([10]; Homo sapiens): 400 nM | CC50 ([10]; Homo sapiens, read-out: LC50): > 100000 nM | GI50 ([11]; Homo sapiens, OVCAR-4): 690 nM | CC50 ([11]; Homo sapiens, OVCAR-4, read-out: LC50): 9500 nM | TGI ([11]; OVCAR-4): 2800 nM | GI50 ([12]; Homo sapiens, SF-268): 1900 nM | CC50 ([12]; Homo sapiens, SF-268, read-out: LC50): 68800 nM | TGI ([12]; SF-268): 11500 nM | GI50 ([13]; Homo sapiens, T47D): 910 nM | CC50 ([13]; Homo sapiens, T47D, read-out: LC50): > 100000 nM | TGI ([13]; T-47D): 9110 nM | GI50 ([14]; Homo sapiens, SW-620): 300 nM | CC50 ([14]; Homo sapiens, SW-620, read-out: LC50): 4300 nM | TGI ([14]; SW620): 1200 nM | TGI ([15]; HCC-2998): 2620 nM | GI50 ([15]; Homo sapiens, HCC 2998): 1240 nM | CC50 ([15]; Homo sapiens, HCC 2998, read-out: LC50): 5500 nM | IC50 [16]: 14400 nM | GI50 ([17]; Homo sapiens): 14000 nM | TGI [17]: 3100 nM | GI50 ([18]; Homo sapiens, SK-MEL-5): 630 nM | CC50 ([18]; Homo sapiens, SK-MEL-5, read-out: LC50): 4600 nM | TGI ([18]; SK-MEL-5): 2010 nM | GI50 ([19]; Homo sapiens, NCI-H226): 800 nM | CC50 ([19]; Homo sapiens, NCI-H226, read-out: LC50): 37500 nM | TGI ([19]; NCI–H226): 3500 nM | Ka binding affinity with oligo-1 [20]: 3 × 10^7 M^–1 | GI50 ([21]; Homo sapiens, UO-31): 1670 nM | CC50 ([21]; Homo sapiens, UO-31, read-out: LC50): 8760 nM | TGI ([21]; UO-31): 3820 nM | TGI [22]: 440 nM | GI50 ([22]; Homo sapiens): 200 nM | CC50 ([22]; Homo sapiens, read-out: LC50): 960 nM | IC90 [23]: 140000 nM | TGI [24]: 1530 nM | GI50 ([24]; Homo sapiens): 350 nM | GI50 ([25]; Homo sapiens, RPMI-8226): 470 nM | CC50 ([25]; Homo sapiens, RPMI-8226, read-out: LC50): > 100000 nM | TGI ([25]; RPMI-8226): 2500 nM | GI50 ([26]; Homo sapiens, Malme-3M): 80 nM | CC50 ([26]; Homo sapiens, Malme-3M, read-out: LC50): 3900 nM | TGI ([26]; MALME-3M): 1200 nM
